US7396849B2, “4-(Condensed cyclicmethyl)-imidazole-2-thiones acting as α2 adrenergic agonists” (Allergan, Inc., priority 2004, dated 2008)

Columns and labels:
[1] = target: T1, alpha2B adrenergic receptors (Homo sapiens, UniProt P18089); test: RSAT assay (Receptor Selection and Amplification Technology), alpha2B; type: cell-based; conditions: NIH-3T3 cells, ratio of maximal effect to that of standard full agonist brimonidine, NA = not active below 10 micromolar
T1 construct: expressed in transfected cells; host or cells: NIH-3T3 cells
T1 sequence (P18089 1-450): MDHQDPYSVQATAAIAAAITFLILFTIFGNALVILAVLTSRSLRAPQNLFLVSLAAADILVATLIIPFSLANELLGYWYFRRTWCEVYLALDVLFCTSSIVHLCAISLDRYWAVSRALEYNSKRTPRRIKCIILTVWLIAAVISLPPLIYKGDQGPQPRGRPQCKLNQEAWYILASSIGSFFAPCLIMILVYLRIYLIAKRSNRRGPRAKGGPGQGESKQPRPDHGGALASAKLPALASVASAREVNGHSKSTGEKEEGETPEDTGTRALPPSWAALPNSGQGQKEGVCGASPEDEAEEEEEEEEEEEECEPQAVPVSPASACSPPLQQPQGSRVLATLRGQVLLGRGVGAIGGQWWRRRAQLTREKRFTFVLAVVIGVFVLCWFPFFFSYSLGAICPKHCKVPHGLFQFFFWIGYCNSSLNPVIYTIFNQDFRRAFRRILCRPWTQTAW
Description: The imidazole-2-thione compounds of the invention are agonists of alpha2 adrenergic receptors. Many compounds of the invention are specific or selective agonists of alpha2B and/or to a lesser extent alpha2C adrenergic receptors, in preference over alpha2A adrenergic receptors. […] 76, pp. 308-311 (incorporated herein by reference) and is also described below. Another reference pertinent to this assay is Conklin et al. (1993) Nature 363:274-6, Receptor Selection and Amplification Technology (RSAT) assay, also incorporated herein by reference.
The RSAT assay measures a receptor-mediated loss of contact inhibition that results in selective proliferation of receptor-containing cells in a mixed population of confluent cells. The increase in cell number is assessed with an appropriate transfected marker gene such as β-galactosidase, the activity of which can be easily measured in a 96-well format. Receptors that activate the G protein, Gq, elicit this response. Alpha2 receptors, which normally couple to Gi, activate the RSAT response when coexpressed with a hybrid Gq protein that has a Gi receptor recognition domain, called Gq/i5.
NIH-3T3 cells are plated at a density of 2×10^6 cells in 15 cm dishes and maintained in Dulbecco's modified Eagle's medium supplemented with 10% calf serum. One day later, cells are cotransfected by calcium phosphate precipitation with mammalian expression plasmids encoding p-SV-β-galactosidase (5-10 μg), receptor (1-2 μg) and G protein (1-2 μg). 40 μg salmon sperm DNA may also be included in the transfection mixture. Fresh media is added on the following day and 1-2 days later, cells are harvested and frozen in 50 assay aliquots. Cells are thawed and 100 μl added to 100 μl aliquots of various concentrations of drugs in triplicate in 96-well dishes. Incubations continue 72-96 hr at 37° C. After washing with phosphate-buffered saline, β-galactosidase enzyme activity is determined by adding 200 μl of the chromogenic substrate (consisting of 3.5 mM o-nitrophenyl-β-D-galactopyranoside and 0.5% nonidet P-40 in phosphate buffered saline), incubating overnight at 30° C. and measuring optical density at 420 nm. The absorbance is a measure of enzyme activity, which depends on cell number and reflects a receptor-mediated cell proliferation. The efficacy or intrinsic activity is calculated as a ratio of the maximal effect of the drug to the maximal effect of a standard full agonist for each receptor subtype. Brimonidine, also called UK14304, the chemical structure of which is shown below, is used as the standard agonist for the alpha2A, alpha2B and alpha2C receptors.
The results of the RSAT assay with several exemplary compounds of the invention are disclosed in Table 1 above together with the chemical formulas of these examplary compounds. NA stands for “not active” at cohcentrations less than 10 micromolar.

[2] = system: Chung Model of Neuropathic Pain; test: Chung model of neuropathic pain (tactile allodynia, von Frey hairs); type: in vivo, rats; conditions: 30 min following drug administration
Description: A model in accordance with Kim and Chung 1992, Pain […], pp 355-363 (Chung model), for chronic pain (in particular peripheral neuropathy) involves the surgical ligation of the L5 (and optionally the L6) spinal nerves on one side in experimental animals. Rats recovering from the surgery gain weight and display a level of general activity similar to that of normal rats. However, these rats develop abnormalities of the foot, wherein the hindpaw is moderately everted and the toes are held together. More importantly, the hindpaw on the side affected by the surgery appears to become sensitive to pain from low-threshold mechanical stimuli, such as that producing a faint sensation of touch in a human, within about 1 week following surgery. This sensitivity to normally non-painful touch is called “tactile allodynia” and lasts for at least two months. The response includes lifting the affected hindpaw to escape from the stimulus, licking the paw and holding it in the air for many seconds. None of these responses is normally seen in the control group.
Rats are anesthetized before surgery. The surgical site is shaved and prepared either with betadine or Novacaine. Incision is made from the thoracic vertebra XIII down toward the sacrum. Muscle tissue is separated from the spinal vertebra (left side) at the L4-S2 levels. The L6 vertebra is located and the transverse process is carefully removed with a small rongeur to expose the L4-L6 spinal nerves. The L5 and L6 spinal nerves are isolated and tightly ligated with 6-0 silk thread. The same procedure is done on the right side as a control, except no ligation of the spinal nerves is performed.
A complete hemostasis is confirmed, then the wounds are sutured. A small amount of antibiotic ointment is applied to the incised area, and the rat is transferred to the recovery plastic cage under a regulated heat-temperature lamp. On the day of the experiment, at least seven days after the surgery, typically six rats per test group are administered the test drugs by intraperitoneal (i.p.) injection or oral gavage. […], the compounds are formulated in d H2O and given in a volume of 1 ml/kg body weight using an 18-gauge, 3 inch gavage needle that is slowly inserted through the esophagus into the stomach.
Tactile allodynia is measured prior to and 30 minutes after drug administration using von Frey hairs that are a series of fine hairs with incremental differences in stiffness. Rats are placed in a plastic cage with a wire mesh bottom and allowed to acclimate for approximately 30 minutes. The von Frey hairs are applied perpendicularly through the mesh to the mid-plantar region of the rats' hindpaw with sufficient force to cause slight buckling and held for 6-8 seconds. The applied force has been calculated to range from 0.41 to 15.1 grams. If the paw is sharply withdrawn, it is considered a positive response. A normal animal will not respond to stimuli in this range, but a surgically ligated paw will be withdrawn in response to a 1-2 gram hair. The 50% paw withdrawal threshold is determined using the method of Dixon, W. J., Ann. Rev. Pharmacol. Toxicol. 20:441-462 (1980) hereby incorporated by reference. The post-drug threshold is compared to the pre-drug threshold and the percent reversal of tactile sensitivity is calculated based on a normal threshold of 15.1 grams.
All measurements 30 min following drug administration. p value<0.001 compared to pretreatment values.

Sprague-Dawley rats = test: Sedative activity (exploratory behavior after i.p. injection); type: in vivo; conditions: intraperitoneally, up to a dose of 1 mg/kg
Protocol: To test sedation, six male Sprague-Dawley rats are given up to 3 mg/kg of the test compound in a saline or DMSO vehicle by intraperitoneal injection (i.p.). Sedation is graded 30 minutes following administration of the drug by monitoring locomotor skills as follows.
The Sprague-Dawley rats are weighed and 1 ml/kg body weight of an appropriate concentration (ie. 3 mg/ml for a final dose of 3 mg/kg) drug solution is injected intraperitoneally. Typically the test compound is formulated in approximately 10 to 50% DMSO. The results are compared to controls that are injected with 1 ml/kg saline or 10 to 50% DMSO. Rat activity is then determined 30 minutes after injection of the drug solution. Rats are placed in a dark covered chamber and a digicom analyzer (Omnitech Electronic) quantitates their exploratory behavior for a five-minute period. The machine records each time the rat interrupts an array of 32 photoelectric beams in the X and Y orientation.
Effects on Cardiovascular System

Compound | Intrinsic Activity Alpha 2B [1] | % Pain Reversal ± SEM ([2]; 10 μg/kg i.p.) [%] | % Pain Reversal ± SEM ([2]; 30 μg/kg i.p.) [%] | % Pain Reversal ± SEM ([2]; 30 μg/kg p.o.) [%] | % Pain Reversal ± SEM ([2]; 300 μg/kg i.p.) [%] | sedative effect (Sprague-Dawley rats) | % Pain Reversal ± SEM ([2]; 3 μg/kg p.o.) [%] | % Pain Reversal ± SEM ([2]; 10 μg/kg p.o.) [%] | % Pain Reversal ± SEM ([2]; 100 μg/kg p.o.) [%]
CC(c1c[nH]c(=S)[nH]1)c1cccc2ncccc12 (racemic) [Compound 7, 4-(1-quinolin-5-yl-ethyl)-1,3-dihydro-imidazole-2-thione] | 0.90 | 2.9 ± 0.7 | 65.8 ± 6.1 | 77.0 ± 5.1 | 77.7 ± 7.2 | no sedative effect |  |  | 
CC(c1c[nH]c(=S)[nH]1)c1cccc2ncccc12 (single isomer, unassigned; (-)) [Compound 15, (−)-4-(1-quinolin-5-yl-ethyl)-1,3-dihydro-imidazole-2-thione] | 0.89 |  |  | 82.0 ± 6.2 |  | no sedative effect | 58.0 ± 5.3 | 78.0 ± 4.6 | 81.0 ± 8.1
